Where two headings read alike, the source gives them in different places.
Columns and labels:
fibromyalgia model rats = assay: Analgesic effect on allodynia in fibromyalgia model rats (von Frey, 50% response threshold); format: in vivo, rat; settings: measured 3 hours after administration, Day 7, compared to negative control group
Description: The analgesic effect of the crystal of compound (I) or the pharmacologically acceptable salt thereof against fibromyalgia syndrome was evaluated using fibromyalgia model rats (Sluka et al., Journal of Pharmacology and Experimental Therapeutics, 2002, vol. 302, pp. 1146-1150; Nagakura et al., Pain, 2009, vol. 146, pp. 26-33; Sluka et al., Pain, 2009, vol. 146, pp. 3-4). Form A crystal of compound (I) was used as a crystal of compound (I) or the pharmacologically acceptable salt thereof for evaluation.
The above model rats were prepared as follows. In experiments, 6-to 7-week-old SD male rats were used for 5 or 6 cases per group. 100 μL of acidic physiological saline adjusted to pH 4.0 was administered twice to the gastrocnemius muscle of the right hind paw of each rat (the day of the administration of acidic physiological saline was defined as Day 1 after the start of the experiment, and single dose administrations were carried out on Days 1 and 6 after the start of the experiment) under inhalation anesthesia with isoflurane. The thus prepared group was determined to be an acidic physiological saline group. As a control for the model, a group treated with a physiological saline instead of an acidic physiological saline was determined to be a physiological saline group.
Allodynia observed in fibromyalgia model rats was measured using a von Frey filaments according to a method described in a known publication (Chaplan et al., Journal of Neuroscience Methods, 1994, vol. 53, pp. 55-63) and a 50% response threshold (g) was determined. On Day 7 after the start of the experiment, allodynia was measured 3 hours after oral administration of Form A crystal of compound (I), and the analgesic effect was evaluated. Allodynia of the acidic physiological saline group was measured before oral administration of Form A crystal of compound (I). […] Allodynia was measured 3 hours after the oral administration of the crystal of compound (I), and the analgesic effect was evaluated. […]

[1] = Evaluation of solubility in Japanese Pharmacopoeia test fluids; format: physicochemical; settings: thermodynamic from solid
Description: Form A crystal of compound (I) (100 mg) was weighed into a borosilicate glass vial, and the 1st fluid for disintegration test/1st fluid for dissolution test of the Japanese Pharmacopoeia 16th edition (pH 1.2)(1 mL) or the 2nd fluid for disintegration test of the Japanese Pharmacopoeia 16th edition (pH 6.8)(1 mL) was added in a temperature and humidity test chamber (Amefrec Co., Ltd.; NO DOORα) adjusted to 37° C., followed by stirring. Form B crystal of ethane disulfonate of compound (I) (10 mg) was weighed into a borosilicate glass vial, and the 2nd fluid for disintegration test of the Japanese Pharmacopoeia 16th edition (pH 6.8) (0.1 mL) was added in a temperature and humidity test chamber (Amefrec Co., Ltd.; NO DOORα) adjusted to 37° C., followed by stirring. After 30 minutes, the inside of each vial was visually checked, and it was confirmed that each crystal was completely dissolved.

[2] = Evaluation of storage stability, Form A crystal versus amorphous matter (HPLC purity); format: physicochemical; settings: for Chemical purity, After storage / Decomposition product increased by not less than 0.15% after storage / Optical purity, After storage: airtight state, listed as Form A
[3] = 40° C., relative humidity 75%, 8 weeks

In the case of `CN(C)C1CCN(C(=O)C[C@H](O)c2nccn2C)CC1` [Form A crystal, (S)-1-(4-(dimethylamino)piperidin-1-yl)-3-hydroxy-3-(1-methyl-1H-imidazol-2-yl)propan-1-one], the “improvement of allodynia (50% response threshold)” value (fibromyalgia model rats; oral 1 mg/kg) is reported as “significant improvement”, the “improvement of allodynia (50% response threshold)” value (fibromyalgia model rats; oral 10 mg/kg) is reported as “significant improvement” and the solubility at 30 min ([1]; Japanese Pharmacopoeia test fluids, text summary of Table 5, 37° C., read-out: solubilities) is reported as ≥ 100 mg/mL. For the same compound, the solubility at 30 min ([1]; simulated gastric fluid, 1st fluid for disintegration test/1st fluid for dissolution test of the Japanese Pharmacopoeia 16th edition (pH 1.2), 37° C., 30 minutes, read-out: Solubility (37° C.)) was > 100 mg/mL, the “Chemical purity, After storage” value [2, 3] was 99.9% and the “Decomposition product increased by not less than 0.15% after storage” value [2, 3] was “None”. For the same compound, the “Optical purity, After storage” value [2, 3] was 98.8 % ee, the “Chemical purity, After storage” value ([2]; 60° C., 4 weeks) was 99.8% and the “Decomposition product increased by not less than 0.15% after storage” value ([2]; 60° C., 4 weeks) was “None”. For the same compound, the “Optical purity, After storage” value ([2]; 60° C., 4 weeks) was 98.8 % ee, the “Chemical purity, Initial value” ([2]; before storage) was 99.9% and the “Optical purity, Initial value” ([2]; before storage) was 98.6 % ee.

Reference: patent US11834431B2, “Crystals of cyclic amine derivative and pharmaceutical use thereof” (Toray Industries, Inc., priority 2016, dated 2023)
